In patent US20230105212A1, “BIPHENYL DERIVATIVE INHIBITOR, PREPARATION METHOD THEREFOR AND USE THEREOF” (SHANGHAI HANSOH BIOMEDICAL CO., LTD., priority 2020, published 2023):

Key:
[1] = tested on: CHO-PDL1/Jurkat-PD1 cell pathway; experiment: Inhibition of CHO-PDL1/Jurkat-PD1 cell pathway (NFAT luciferase reporter); type: cell-based; conditions: for EC50: 6 hours incubation, luciferase signal; for maximal fold induction: relative to the signal value of the non-dosed group, read-out: Maximum induction fold
Protocol: Test Embodiment 3. Inhibitory Effect of the Compounds of the Present Disclosure on CHO-PDL1/Jurkat-PD1 Cell Pathway
Experimental purpose: The purpose of this test embodiment was to test the inhibitory effect of compounds on the CHO-PDL1/Jurkat-PD1 cell pathway.
Experimental method: Two stably transfected cell lines were included in this experiment, CHO-K1 cells stably transfected with PD-L1 and Jurkat cells stably transfected with PD-1 and NFAT luciferase reporter genes. Compounds were incubated with the two cell lines. Then, due to the inhibitory effect on the PD-1/PD-L1 pathway, the activation degree of Jurkat cells changed, so that the level of the reporter gene NFAT in the downstream of Jurkat cells changed, and the level of NFAT was characterized by detecting the signal value of luciferase, so that the inhibitory effect of the test compound on CHO-PDL1/Jurkat-PD1 pathway was characterized.
CHO-PDL1 cells (Promega, #J1252) were cultured to a suitable cell density. After digestion, the cells were resuspended by complete medium to become a suitable density of cell suspension. The cell suspension was plated 100 μL per well on a 96-well plate (Corning, #3610), and placed in a 37° C., 5% CO2 incubator and incubated overnight, and assay medium (RPMI 1640+2% FBS, RPMI 1640 Cat. No.: Gibco, #22400089, FBS Cat. No.: Gibco, #10091148) was used to prepare compound solutions of different concentrations. NFAT-luc2/PD1 Jurkat cells (Promega, #J1252) were collected and resuspended to the appropriate cell density using assay medium. The supernatant of the CHO-PDL1 cell culture plate was aspirated, and 40 μL of the prepared compound solution and 40 μL of resuspended NFAT-luc2/PD1 Jurkat cells were added, and incubated in a 5% CO2 incubator at 37° C. for 6 hours, and the cell plate was taken out, then 40 μL of One-Glo reagent (Promega, #E6120) was added to each well, shaked and mixed well, incubated in the dark at room temperature for 10 minutes, then put into a microplate reader and the luminescence program was used to read the luminescence value of the cell plate.
The EC50 value was fitted according to the compound concentration and the luminescence signal value, and the maximum induction fold of each compound relative to the signal value of the non-dosed group was calculated, as shown in Table 3.

[2] = tested on: NFAT-luc2/PD1 Jurkat cells; experiment: In vitro cytotoxicity on NFAT-luc2/PD1 Jurkat cells (CellTiter-Glo); type: cell-based; conditions: 72 hours; for IC50: Homo sapiens, Jurkat
Protocol: (§1) Test Embodiment 5. In Vitro Cytotoxicity of the Compounds of the Present Disclosure on NFAT-Luc2/PD1 Jurkat Cells and MC38-hPDL1 Cells
(§2) Experimental purpose: To test the in vitro cytotoxicity of compounds on NFAT-luc2/PD1 Jurkat cells and MC38-hPDL1 cells.
(§3) When the cells were cultured to an appropriate degree of confluency, the cells were collected, and the cells was adjusted in an appropriate cell concentration by complete medium, then the cell suspension was plated in a 96-well plate, 90 μL per well, and put in a 37° C., 5% CO2 incubator overnight; compound solutions of different concentrations were prepared by DMSO and medium, and a vehicle control was set; compound solutions were added to a 96-well plate, 10 μL per well, and put in a 37° C., 5% CO2 incubator and cultured for 72 hours. After that, CellTiter-Glo solution was added, the mixture was shaken and mixed evenly, incubated in the dark for 10 minutes, and a BioTek Synergy H1 microplate reader was used for reading.
(§4) Luminescence signal value was used to calculate the inhibition rate, and the concentration and inhibition rate were fitted by nonlinear regression curve using Graphpad Prism software to obtain IC50 values, as shown in the following table: […]

[3] = tested on: MC38-hPDL1 cells; experiment: In vitro cytotoxicity on MC38-hPDL1 cells (CellTiter-Glo); type: cell-based, mouse; conditions: for MC38-hPDL1 inhibition rate (%): 72 hours; for IC50: Mus musculus, MC38-hPD-L1, 72 hours
Protocol: as §1, §2, §3, §4

[4] = biological target: T1, PD-L1 protein on the surface of MC38-hPDL1 tumor cells (Homo sapiens, UniProt Q9NZQ7); experiment: Induction of endocytosis of PD-L1 on the surface of tumor cells (flow cytometry); type: cell-based; conditions: 16 hours incubation; for Emax: MC38-hPDL1 cells, read-out: MC38 maximum endocytosis rate; for IC50: inducing endocytosis of PD-L1, MC38-hPDL1 cells, read-out: MC38 IC50
T1 construct: expressed in transfected cells; host or cells: MC38-hPDL1 (mouse colon cancer cells)
T1 sequence (Q9NZQ7 19-290): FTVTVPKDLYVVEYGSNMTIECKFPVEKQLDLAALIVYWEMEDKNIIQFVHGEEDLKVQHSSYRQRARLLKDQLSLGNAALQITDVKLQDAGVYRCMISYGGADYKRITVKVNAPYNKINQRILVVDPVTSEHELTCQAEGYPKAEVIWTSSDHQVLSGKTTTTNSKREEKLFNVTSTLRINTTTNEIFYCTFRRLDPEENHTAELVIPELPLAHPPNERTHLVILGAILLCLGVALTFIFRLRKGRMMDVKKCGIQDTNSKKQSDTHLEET
Procedure, shortened: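 IC50 comes from nonlinear fits of endocytosis rate, calculated from the loss of surface PE-anti-CD274 flow signal relative to vehicle. Cells were MC38 mouse colon cancer cells engineered to express high human PD-L1. Compound exposure lasted 16 h at 37 °C, 5% CO2.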

[5] = biological target: T2, human PD-L1 protein (Homo sapiens, UniProt Q9NZQ7); experiment: Thermal shift: melting temperature of PD-L1 protein; type: binding; conditions: compound 10 μM, PD-L1 protein 2 μM, Tm minus DMSO vehicle control; read-out: ΔTm (° C.)
T2 construct: purchased Acro Biosystems PD1-H5229
T2 sequence (Q9NZQ7 19-238 limits assumed): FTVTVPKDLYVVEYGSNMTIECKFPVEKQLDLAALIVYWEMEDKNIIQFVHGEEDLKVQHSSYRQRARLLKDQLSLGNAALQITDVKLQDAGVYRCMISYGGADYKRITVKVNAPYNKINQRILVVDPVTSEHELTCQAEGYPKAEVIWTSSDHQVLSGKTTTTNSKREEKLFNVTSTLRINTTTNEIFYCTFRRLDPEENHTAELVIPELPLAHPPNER
Procedure, shortened: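 Human PD-L1 at 2 μM final was tested in […], 150 mM NaCl with SYPRO Orange, heated 25→95 °C at 0.03 °C/s in a PCR melt-curve run. Tm was taken per treatment; ΔTm is the shift relative to DMSO vehicle.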

[6] = biological target: T3, human PD-1/PD-L1 binding (Homo sapiens, UniProt Q9NZQ7); experiment: Inhibition of human PD-1/PD-L1 binding (TR-FRET/HTRF); conditions: TR-FRET, PD-L1-His and PD-1-Fc; read-out: PD-1/PD-L1 binding IC50
T3 construct: PD-L1-His protein (19 to 238 amino acids) (Abcam #ab167713); purchased Abcam (PD-L1-His); R&D (PD-1-Fc) ab167713; 1086-PD
T3 sequence (Q9NZQ7 19-238): as the sequence (Q9NZQ7 19-238 limits assumed) above
Procedure, shortened: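 PD-L1-His (aa 19–238, diluted to 10 nM) and PD-1-Fc (aa 25–167, diluted to 20 nM) incubated with compounds (10 μM or 1 μM top, 3-fold, 11 doses) 60 min at room temperature, then anti-6HIS Eu cryptate/anti-human IgG-XL665 added for 3 h RT or overnight 4 °C. HTRF 665/620 nm ratio gave inhibition and IC50.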

SMILES | Emax [4] [%] | IC50 [4] [nM] | ΔTm at 10 µM [5] [°C] | IC50 [6] [nM] | EC50 [1] [nM] | maximal fold induction [1] | Jurkat-PD1 inhibition rate (%) [2] | IC50 [2] [nM] | MC38-hPDL1 inhibition rate (%) [3] | IC50 [3] [nM]
COc1nc(-c2cccc(-c3cccc(NC(=O)c4nc5c(n4C)CCN(C)C5)c3Cl)c2Cl)ncc1CN1CC(NC(C)=O)C1 [Embodiment 224, N-(3′-(5-((3-Acetylaminoazetidin-1-yl)methyl)-4-methoxypyrimidin-2-yl)-2,2′-dichloro-[1,1′-biphenyl]-3-yl)-1,5-dimethyl-4,5,6,7-tetrahydro-1H-imidazo[4,5-c]pyridine-2-carboxamide] | 90 | – | 11.3 | 4 | – | – | 48% | 9500 | 1% | > 10000
COc1nc(-c2cccc(-c3cccc(NC(=O)c4nc5c(n4C)CCN(C)C5)c3Cl)c2Cl)ccc1CN1CC(CO)C1 [Embodiment 215, N-(2,2′-Dichloro-3′-(5-((3-(hydroxymethyl)azetidin-1-yl)methyl)-6-methoxypyridin-2-yl)-[1,1′-biphenyl]-3-yl)-1,5-dimethyl-4,5,6,7-tetrahydro-1H-imidazo[4,5-c]pyridine-2-carboxamide] | 96 | – | 17.3 | 5 | – | – | 85% | 4320 | 51% | 9340
COc1nc(-c2cccc(-c3cccc(NC(=O)c4nc5c(n4C)CCN(C)C5)c3Cl)c2Cl)cnc1CN1CC(F)C1 [Embodiment 217, N-(2,2′-Dichloro-3′-(5-((3-fluoroazetidin-1-yl)methyl)-6-methoxypyrazin-2-yl)-[1,1′-biphenyl]-3-yl)-1,5-dimethyl-4,5,6,7-tetrahydro-1H-imidazo[4,5-c]pyridine-2-carboxamide] | 96 | 1.4 | 13 | – | – | – | 79% | 5370 | 67% | 7150
COc1nc(-c2cccc(-c3cccc(NC(=O)c4nc5c(n4C)CCN(C)C5)c3Cl)c2Cl)ncc1CN1CC2(C1)CN(C(C)=O)C2 [Embodiment 222, N-(3′-(5-((6-Acetyl-2,6-diazaspiro[3.3]heptan-2-yl)methyl)-4-methoxypyrimidin-2-yl)-2,2′-dichloro-[1,1′-biphenyl]-3-yl)-1,5-dimethyl-4,5,6,7-tetrahydro-1H-imidazo[4,5-c]pyridine-2-carboxamide] | 92 | – | – | 5.2 | – | – | 36% | > 10000 | 0% | > 10000

The next lines start with results.

Emax [4] [%] | IC50 [4] [nM] | ΔTm at 10 µM [5] [°C] | IC50 [6] [nM] | SMILES | EC50 [1] [nM] | maximal fold induction [1] | Jurkat-PD1 inhibition rate (%) [2] | IC50 [2] [nM] | MC38-hPDL1 inhibition rate (%) [3] | IC50 [3] [nM]
80 | 9.9 | 11 | – | COc1cc(C(=O)Nc2cccc(-c3cccc(NC(=O)c4nc5c(n4C)CCN(C)C5)c3Cl)c2C)ncc1CNc1ccnc(C)n1 [Embodiment 90, N-(2-Chloro-3′-(4-methoxy-5-(((2-methylpyrimidin-4-yl)amino)methyl)picolinamido)-2′-methyl-[1,1′-biphenyl]-3-yl)-1,5-dimethyl-4,5,6,7-tetrahydro-1H-imidazo[4,5-c]pyridine-2-carboxamide] | 99 | 3.2 | 99.0%^ | 1400 | 6.8% | > 10000
94 | 3.7 | 11.2 | 5.7 | COc1cc(C(=O)Nc2cccc(-c3cccc(NC(=O)c4nc5c(n4C)CCN(C)C5)c3Cl)c2C)ncc1CN[C@@H]1CCOC[C@@H]1F [Embodiment 30, N-(2-Chloro-3′-(5-((((3R,4R)-3-fluorotetrahydro-2H-pyran-4-yl)amino)methyl)-4-methoxypicolinamido)-2′-methyl-[1,1′-biphenyl]-3-yl)-1,5-dimethyl-4,5,6,7-tetrahydro-1H-imidazo[4,5-c]pyridine-2-carboxamide] | – | – | 99.0%^ | 2950 | 4.0% | > 10000
– | – | 10.8 | 1 | COc1cc(C(=O)Nc2cccc(-c3cccc(NC(=O)c4nc5c(n4C)CCN(C)C5)c3Cl)c2C)ncc1CNC1(C(=O)O)COC1 [Embodiment 102, 3-(((6-((2′-Chloro-3′-(1,5-dimethyl-4,5,6,7-tetrahydro-1H-imidazo[4,5-c]pyridine-2-carboxamido)-2-methyl-[1,1′-biphenyl]-3-yl)carbamoyl)-4-methoxypyridin-3-yl)methyl)amino)oxetane-3-carboxylic Acid] | – | – | −12.0% ^ | > 10000 | −6.7%^ | > 10000
– | – | – | 2.2 | COc1cc(-c2cccc(-c3cccc(NC(=O)c4nc5c(n4C)CCN(C)C5)c3Cl)c2Cl)ccc1CNCC(=O)O [Embodiment 159, ((2′,2″-Dichloro-3″-(1,5-dimethyl-4,5,6,7-tetrahydro-1H-imidazo[4,5-c]pyridine-2-carboxamido)-3-methoxy-[1,1′:3′,1″-terphenyl]-4-yl)methyl)glycine] | 45 | 3.2 | 24% | > 10000 | 5% | > 10000
87 | 11 | 12 | 9.4 | COc1nc(-c2cccc(-c3cccc(NC(=O)c4nc5c(n4C)CCN(C)C5)c3Cl)c2C)ccc1CNC1COC1 [Embodiment 112, N-(2-Chloro-3′-(6-methoxy-5-((oxetan-3-ylamino)methyl)pyridin-2-yl)-2′-methyl-[1,1′-biphenyl]-3-yl)-1,5-dimethyl-4,5,6,7-tetrahydro-1H-imidazo[4,5-c]pyridine-2-carboxamide] | – | – | 57.0%^ | 8630 | 13.0%^ | > 10000
